Data: patent publication US20240238237A1, “CONJUGATED LINOLEIC ACID SUPPLEMENTATION FOR DISEASE TREATMENT” (VIRGINIA TECH INTELLECTUAL PROPERTIES, INC., priority 2021, published 2024)
“Also recorded” adds a separate entry of the source.

Columns and labels:
[1] = test system: liver of WT, PWS and PWS-KO mice; assay: Liver histology (H&E); format: in vivo, mouse
Experimental: Tissues were isolated immediately following euthanasia by CO2 asphyxiation and placed into 4% paraformaldehyde, overnight, with rocking at 4° C. The tissues were then rinsed in 70% ethanol and stored in 70% ethanol at 4° C. until processing. The Virginia Tech Veterinary Teaching Hospital at the Virginia-Maryland College of Veterinary Medicine processed the tissues for histology and stained with hematoxylin-eosin stain for microscopy. Representative samples were visualized using a 40× ocular on a Nikon Eclipse 50i micro-scope and captured using an Olympus Q-color3 camera.

[2] = test system: WT, PWS (Snord116m+/p−) and PWS-KO (Snord116m−/p−) mice; assay: In vivo plantarflexor torque-frequency and fatigue assays; parameters: species or system mouse
Experimental: The procedures for in vivo muscle testing were recently published. Briefly, at the end of the study, following both running wheel and metabolism measurements, body weight was determined, and mice were anesthetized with isoflurane (VetOne Fluriso, Boise, ID, USA) and placed on the temperature-controlled platform (40° C.) of the contractile apparatus (ASI), as described. The right hindlimb was shaved, hair remover applied (Nair Hair Remover Lotion, Ewing, NJ, USA) for 30 s, cleaned with 2-inch×2-inch gauze and tap water, and swabbed with povidone-iodine (Betadine Solution Swabsticks, Stamford, CT, USA). The knee was clamped so the tibia was 90° to the femur. The foot at 90° to the tibia was secured with clear Transpore surgical tape ([…], St. Paul, MN, USA) to the foot pedal of the Aurora Scientific (ASI: Aurora, ON, Canada) dual-mode servomotor. The mouse tail was taped (M3, St. Paul, MN, USA) loosely to the platform to keep it clear of the foot pedal. In vivo plantarflexor torque-frequency and fatigue assays were determined as described in Hamm et al.. Dynamic Muscle Control (DMC) software controlled the timing and frequency of the stimulations and collection of torque. Peak torque for each muscle contraction was determined using ASI Dynamic Muscle Analysis (DMA) software. Due to the body mass and fat mass reduction of the CLA groups in this study, torque was normalized separately by body mass (g) and the final measure of lean body mass (g).
In vivo plantar-flexor torque-frequency and fatigue curves were analyzed using Graph-Pad Prism 9.2.0. A two-way ANOVA was performed with multiple comparisons across groups. For torque-frequency figures, a nonlinear model was fit using the sigmoidal curve with variable slope.

[3] = test system: WT, PWS (Snord116m+/p−) and PWS-KO (Snord116m−/p−) mice; assay: Spontaneous wheel running; format: in vivo, mouse; conditions: post-study
Experimental: For the spontaneous/motivated wheel running analysis, mice were placed in wire-bottom cages equipped with computer-monitored running wheels (Mini-mitter, Sunriver, OR, USA) for a total of 4 days, and then returned to their home cages. The first two days were not recorded as these were considered acclimation days, and the last 48 h were used for data collection. Mice had ad lib access to food and water during this time. For the pre-week, regular mouse chow was provided. For the post-week measurements, mice were supplied with their study diet during testing.

[4] = test system: hypothalamic gene expression; assay: Hypothalamic RNA-seq and RT-QPCR; format: in vivo, mouse
Experimental: Fresh hypothalamus tissue was lysed in TRIzol® using a rotor stator homogenizer. TRIzol samples were frozen at −20° C. in microfuge tubes until purified (2 weeks to 5 months). […] Purified RNA was then DNAse-treated using TURBO DNA-free™ Kit (ThermoFisher #AM1907) according to manufacturer's instructions, diluted to 60 ng/μL in nuclease-free water, and stored at −80° C.
RNA sequencing and library preparation was performed by Virginia Tech's Genomics Sequencing Center facility at the Fralin Life Sciences Institute. […] The library was enriched by 14 cycles of PCR, validated using Agilent TapeStation, and quantitated by qPCR. Individually indexed cDNA libraries were pooled and sequenced on NextSeq 75 SR. The Illumina NextSeq Control Software v2.1.0.32 with Real Time Analysis RTA v2.4.11.0 was used to provide the management and execution of the NextSeq 500 and to generate binary base call (BCL) files. The BCL files were converted to FASTQ files, adapters trimmed, and demul-tiplexed using bcl2fastq Conversion Software v2.20. FASTQ files were aligned to mouse genome GRCm38.p6 using the Geneious RNA assembler 2 Jan. […] Raw read counts were quantified to gene and/or transcript annotations with loss of strand-specificity. Differential expression analysis across experimental conditions was performed using the DESeq2 plugin in Geneious Prime. Default settings for filtering low-expression mapped genetic features were used for the DESeq2 plugin. False discovery rate (FDR) was calculated using the Benjamini-Hochberg procedure with a threshold for significance of FDR <0.10. Additionally, raw read counts were used to quantify differential expression through edgeR and voom using the DEApp online webserver. Low-expression mapped genetic features were removed with log 2CPM <1 in 2 or more samples. The results from the three differential expression methodologies, DESeq2, edgeR, and voom, were compared using R and spreadsheet software such as Microsoft Excel. Differentially expressed genes were analyzed for gene-ontology enrichment with MouseMine.
Reactions of 10 μL were performed using 150 nM final primer concentration. […] A 90 ng measure of RNA was used per 10 μL reaction. Two to three technical replicates were performed. Control reactions for each sample (minus reverse-transcriptase and minus template controls) were used for quality control. […] Quality-control measures including melt-curve analysis, technical replicate analysis, etc., were analyzed by thermocycler software and by operator; any major errors were excluded from analysis when deemed appropriate by the quality-control software, and/or new samples and plates were run. Candidate reference genes for ddCT analysis were analyzed and mouse beta-actin was chosen as the reference gene control for all experiments.
The numbers of samples in statistical tests are described in respective figures. The 2ddCT method of relative quantification was used. Statistical significance tests were performed on respective ddCT values, from which Relative Quantification values were derived. A two-way ANOVA with Bonferroni correction was used for relative expression of RNA normalized to WT or control conditions.

[5] = test system: testes of N2KO and WT mice; assay: Testicular histology (H&E), Example 3; format: in vivo, mouse
Description: At the end of the study, numerous body tissues were taken during necropsy, including testes. […] There appeared to be no effect in WT mice.
At the end of the 12-week feeding study with supplemental CLA, mice were euthanized and necropsied. Testicular tissue was removed from the abdominal cavity and placed in 4% paraformaldehyde overnight. The next day, tissue was dehydrated in 70% ethanol and stored at 4 degrees C. until further processing, which included embedding, sectioning and H&E staining.

Substance: conjugated linoleic acid [CLA]
- Mice with liver steatosis on CLA diet, PWS and PWS-KO ([1]; PWS and PWS-KO): ~50%
- Liver steatosis, PWS-KO mice on CLA diet ([1]; PWS-KO): four of seven
- Liver steatosis, PWS mice on CLA diet ([1]; PWS, two of these mild): five of eight
- Liver steatosis, WT mice on CLA diet ([1]; WT): all liver sections
- Mice with liver steatosis on CLA diet, WT ([1]; WT): 100%
- Resistance to fatigue ([2]; PWS CLA and PWS-KO CLA vs control diet counterparts): lowered
- Plantarflexor torque output, PWS group ([2]; PWS, normalized to lean body mass): lowered torque output
- Fatigue ([2]; WT and PWS mice on CLA diet vs most other genotypes and treatments): greater fatigue
- Plantarflexor torque output, WT mice ([2]; WT, regardless of normalization method): increased torque output
- Muscle function, overall ([2]; any group, vs WT baseline): not detrimental to muscle function
- 24 h spontaneous wheel running [3]: non-significant
- Chmp1b mRNA, verification QPCR ([4]; QPCR, p=0.01): increase was maintained
- Retreg2 mRNA, validation QPCR ([4]; QPCR, p=0.22): not significant
- Genes up-regulated by CLA diet ([4]; RNA-seq): 135 genes
- Retreg2 mRNA reduction ([4]; RNA-seq, CLA diet treatment on PWS mice): 0.89 fold
- Differentially expressed genes between control diet and CLA diets ([4]; RNA-seq, WT and PWS hypothalamus): 431 genes
- Chmp1b mRNA increase with CLA diet ([4]; RNA-seq, both genotypes): 1.27 fold
- Mael expression in PWS mice ([4]; RNA-seq, not confirmed by RT-QPCR): rescued
- Gene Ontology enrichment, WT response to CLA diet ([4]; WT only): starvation, nutrient levels, and cellular stress were significantly enriched
- Gene Ontology enrichment, CLA vs control ([4]; all genotypes): significantly enriched processes related to ribosomal RNA processing, cellular metabolic processes, and aging, lethality, or survival processes
- Testicular morphology, WT mice ([5]; 12 weeks CLA diet): no effect; also recorded: normal testicular morphology
- Testicular morphology, N2KO mice ([5]; 12 weeks CLA diet vs control diet): improved testicular morphology
- Sperm in N2KO mice fed the CLA diet ([5]; N2KO, histology): apparent presence of sperm in the epididymis
- Testis size ([5]; effect of diet): not influenced
